Test results from the SangsterLogP compilation.

Test: method code SF-AS, from DOI: 10.1021/acs.jmedchem.6b01691, PMID: 28051859

| Compound | logP |
| --- | --- |
| Cc1cccc(OC(F)F)c1 | 2.87 |
| FC(F)Oc1ccc(C(F)(F)F)cc1 | 2.76 |
| FC(F)Sc1ccc(Cl)cc1 | 3.24 |
| Fc1ccc(SC(F)F)cc1 | 2.92 |
| COc1ccc(F)cc1 | 2.14 |
| FC(F)Sc1ccc(Br)cc1 | 2.96 |
| COc1ccc(C(F)(F)F)cc1 | 2.87 |
| CSc1ccc(Br)cc1 | 2.78 |
| O=[N+]([O-])c1ccc(SC(F)F)cc1 | 2.54 |
| COc1cccc(F)c1 | 2.43 |
| Cc1ccc(OC(F)F)cc1 | 2.88 |
| FC(F)Oc1cccc(C(F)(F)F)c1 | 2.69 |
| FC(F)Sc1ccccc1 | 2.89 |
| COc1ccc(C(=O)c2ccccc2)cc1 | 2.69 |
| CSc1ccccc1 | 2.6 |
| CSc1ccc(F)cc1 | 2.77 |
| COc1ccc(SC(F)F)cc1 | 3.11 |
| COc1cccc(C(F)(F)F)c1 | 2.79 |
| CC(=O)Nc1ccc(SC(F)F)cc1 | 2.42 |
| COc1ccc(C)cc1 | 2.56 |
| Cc1ccc(SC(F)F)cc1 | 3.41 |
| CSc1ccc(C)cc1 | 3.01 |
| Fc1ccc(OC(F)F)cc1 | 2.47 |
| COc1ccc(SC)cc1 | 2.66 |
| O=[N+]([O-])c1ccc(OC(F)F)cc1 | 1.98 |
| Fc1cccc(OC(F)F)c1 | 2.59 |
| COc1ccc(OC(F)F)cc1 | 2.35 |
| CSc1ccc(Cl)cc1 | 3.01 |
| CSc1ccc([N+](=O)[O-])cc1 | 2.64 |
